Test results reported in US20210386829A1, “COMPOSITIONS AND METHODS FOR MODULATING CGRP SIGNALING TO REGULATE INNATE LYMPHOID CELL INFLAMMATORY RESPONSES” (The Broad Institute, Inc., priority 2018, published 2021).

Test system: inflammatory ILC2s (ST2-KLRG1+ ILCs; iILC2s)
Assay: culture of sort-purified inflammatory ILC2s (iILC2s) with IL-33 or IL-25 with or without CGRP, qPCR
Format: cell-based, mouse
Conditions: IL-33 or IL-25 with vs without CGRP, 6 hours
Procedure: Isolation of lung cells for fluorescence-activated cell sorting. Mice were euthanized and perfused with 8 ml cold PBS via the right heart ventricle. Lung lobes were removed from the chest cavity and transferred into gentleMACS C tubes containing Buffer S and enzymes A and D from the lung dissociation kit (Cat #130-095-927; Miltenyi Biotec). After manual dissociation of the tissue by running program lung_01 of the automated tissue dissociator (gentleMACS; Miltenyi Biotec), and digestion at 37° C. for 25 min on a rotator, the tissue pieces were further dissociated by running program lung_02 of the automated tissue dissociator. Subsequently, the single-cell suspension was passed through a 70 um cell strainer and washed with DPBS (Cat #14190-144; Thermo Fisher Scientific) containing 0.5% bovine serum albumin (Cat #BP1600-1; Fisher Scientific) and 2 mM EDTA. After incubation of the cells with CD90.2 MicroBeads (Cat #130-049-101; Miltenyi Biotec) on ice for 17 min, cells were washed and transferred onto LS columns (Cat #130-042-401; Miltenyi Biotec) to enrich for CD90.2-positive cells by positive selection. […] Cells were purified by fluorescence-activated cell sorting using a BD FACS Aria IIIu flow cytometer with 3 lasers (405 nm, 488 nm, 640 nm) or 4 lasers (405 nm, 488 nm, 561 nm and 640 nm) (BD Biosciences). […]

Substance: CGRP: neuropeptide calcitonin gene-related peptide (encoded by Calca), ligand of the Ramp1/Calcrl receptor; given at 100 nM in vitro, 6.65 ug nasally
- Il5 and Il13 expression in iILC2s: no differences
